Experimental data published in PubChem BioAssay AID1918994 (Molecular Pharmacology Branch, DTP, NCI, 2023).

Test system: 292921-168-R-J2-PDC complex spheroid growth
Assay: Anticancer human tumor 292921-168-R-J2-PDC patient-derived pancreatic carcinoma cell line growth inhibition [AhR]
Settings: for IC50: curve of first compound; for viability, T/C: stronger effect = lower value; active = viability on the fitted dose curve at most 10% of control; inactive = the rest
How it was run: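 Complex tumor spheroids co-cultured with HUVEC and human MSC stroma; AhR antagonists tested in combination with standard-of-care and investigational agents. Top concentration at or near clinical Cmax (else 10 microM), half-log dilutions; growth expressed as percent test/control.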
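Also: spheroids exposed to compounds for seven days after three days of growth.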

Cn1ncnc1C1c2n[nH]c(=O)c3cc(F)cc(c23)NC1c1ccc(F)cc1 (stereo not given) + Cc1ccccc1N=Nc1ccc(NC(=O)c2ccnn2C)c(C)c1
> 0.1 µM: IC50 (second compound 0.1 µM) | IC50 (second compound 0.316 µM) | IC50 (second compound 1 µM) | IC50 (second compound 3.16 µM) | IC50 (second compound 10 µM)
inactive: viability, T/C (second compound 0.1 µM, first compound 0.000316 µM) 96.1% | viability, T/C (second compound 0.1 µM, first compound 0.001 µM) 83% | viability, T/C (second compound 0.1 µM, first compound 0.00316 µM) 83.2% | viability, T/C (second compound 0.1 µM, first compound 0.01 µM) 85.7% | viability, T/C (second compound 0.1 µM, first compound 0.0316 µM) 87.8% | viability, T/C (second compound 0.1 µM, first compound 0.1 µM) 82.6% | viability, T/C (second compound 0.316 µM, first compound 0.000316 µM) 90.9% | viability, T/C (second compound 0.316 µM, first compound 0.001 µM) 76.6% | viability, T/C (second compound 0.316 µM, first compound 0.00316 µM) 86.4% | viability, T/C (second compound 0.316 µM, first compound 0.01 µM) 74.8% | viability, T/C (second compound 0.316 µM, first compound 0.0316 µM) 73.8% | viability, T/C (second compound 0.316 µM, first compound 0.1 µM) 86.2% | viability, T/C (second compound 1 µM, first compound 0.000316 µM) 78.6% | viability, T/C (second compound 1 µM, first compound 0.001 µM) 81% | viability, T/C (second compound 1 µM, first compound 0.00316 µM) 80.3% | viability, T/C (second compound 1 µM, first compound 0.01 µM) 81.3% | viability, T/C (second compound 1 µM, first compound 0.0316 µM) 87.8% | viability, T/C (second compound 1 µM, first compound 0.1 µM) 74.1% | viability, T/C (second compound 3.16 µM, first compound 0.000316 µM) 80.9% | viability, T/C (second compound 3.16 µM, first compound 0.001 µM) 76.2% | viability, T/C (second compound 3.16 µM, first compound 0.00316 µM) 76.3% | viability, T/C (second compound 3.16 µM, first compound 0.01 µM) 75.1% | viability, T/C (second compound 3.16 µM, first compound 0.0316 µM) 72.5% | viability, T/C (second compound 3.16 µM, first compound 0.1 µM) 59.6% | viability, T/C (second compound 10 µM, first compound 0.000316 µM) 64% | viability, T/C (second compound 10 µM, first compound 0.001 µM) 68.5% | viability, T/C (second compound 10 µM, first compound 0.00316 µM) 51.8% | viability, T/C (second compound 10 µM, first compound 0.01 µM) 61.7% | viability, T/C (second compound 10 µM, first compound 0.0316 µM) 53.3% | viability, T/C (second compound 10 µM, first compound 0.1 µM) 52.8%
